Reference: patent US4027039A (priority 1975, dated 1977)
Like-named read-outs stand apart in the source and are kept apart here.

Columns and labels:
[1] = tested on: Influenza, Ann Arbor virus; assay: Influenza Ann Arbor in mice, oral; schedule by table; late read day 5 (Tables 15, 25, 29, 30), 6 (18, 20, 22, 23, 26, 27, 28, 54), 7 (14, 19, 21, 24, 53, 56), 8 (16, 17, 51), 9 (11, 55); format: in vivo, mouse
Influenza PR 8 virus = assay: Influenza PR 8 in mice, oral; schedule by table; late read day 6 (Table 37), 7 (33, 36), 8 (32, 35, 47), 10 (38); control fraction 18/20 (Table 32), 19/20 (Table 35), else 100%; format: in vivo, mouse; conditions: of 41 tests
[2] = tested on: Influenza B Massachusetts virus; assay: Influenza B Mass. in mice, oral; late read day 5 (Table 39), 7 (Table 40), 11 (Tables 61, 65); control fraction 16/20 (Table 61), else 100%; format: in vivo, mouse
Method: A portion of a commercially available sample of amantadine was recrystallized from isopropanol. The activity of the material against Influenza B Mass. was tested for the sample as obtained, the recrystallized portion, and the mother liquor obtained from recrystallizing the portion.

[3] = tested on: Influenza B Massachusetts virus; conditions: larger doses and different dose schedules, literature; cited from earlier work
viral infections = assay: Antiviral screening in animals, general statements; conditions: mouse, in vivo
[4] = tested on: infectious canine hepatitis; conditions: 50 mg/kg; cited from earlier work
cells = assay: Plaque reduction and cytotoxicity in cells; format: cell-based
Source text: It is well known in virology that cells injured due to toxic substances will not support the growth of viruses.

polio and Vaccinia virus = conditions: cytopathic effect; cited from earlier work

NC12CC3CC(CC(C3)C1)C2 [Commercial amantadine, amantadine, reference compound]
occasions with survivors ([1]; of 18 tests): 5
instances of increased geometric mean survival time (Influenza PR 8 virus): 11
statistically significant number of survivors in one single instance (Influenza PR 8 virus): 3
No. animals surviving after 11 days ([2]; total dose 60 ng): 3
No. animals surviving after 11 days ([2]; total dose 600 ng): 3
Survivors ([2]; total dose 600 ng): 3
No. animals surviving after 11 days ([2]; total dose 6 μg): 7
Survivors ([2]; total dose 6 μg): 5
No. animals surviving after 11 days ([2]; total dose 60 μg): 3
Survivors ([2]; total dose 60 μg): 2
No. animals surviving after 11 days ([2]; total dose 600 μg): 5
Survivors ([2]; total dose 600 μg): 5
No. animals surviving after 11 days ([2]; total dose 6 mg): 4
Survivors ([2]; total dose 6 mg): 2
effect against Influenza B Massachusetts [3]: ineffective
activity in words (viral infections): inactive against all of the other viruses in the test system

O=C(CCNNC(=O)c1ccncc1)NCc1ccccc1 [Nialamide, nialamide, reference compound]
Survivors ([1]; total dose 400 pg): 1
Survivors ([1]; total dose 4 ng): 1
Survivors ([1]; total dose 40 ng): 0
Survivors ([1]; total dose 400 ng): 0
Survivors ([1]; total dose 4 μg): 0
Survivors ([1]; total dose 400 μg): 2
Survivors ([1]; total dose 4 mg): 1
treated animals survived [4]: 15 of 16

NN.O=S(=O)(O)O [Hydrazine Sulfate, hydrazine sulfate]
toxic effects on the cells (cells; 10 to 100 mg/ml): toxic effects on the cells were clearly evident
antiviral activity, plaque reduction (cells; below the level of toxicity): no antiviral activity was demonstrated
No. animals surviving after 6-9 days (Herpes virus; total dose 5 μg): 3
No. animals surviving after 6-9 days (Herpes virus; total dose .0005 μg): 3
No. animals surviving when 100% (or given fraction) of controls are dead (Herpes virus; total dose .0005 μg): 3
Survivors (Herpes virus; total dose .0005 μg): 3
No. animals surviving after 6-9 days (Herpes virus; total dose .005 μg): 4
No. animals surviving when 100% (or given fraction) of controls are dead (Herpes virus; total dose .005 μg): 4
Survivors (Herpes virus; total dose .005 μg): 4
No. animals surviving after 6-9 days (Herpes virus; total dose .05 μg): 1
No. animals surviving when 100% (or given fraction) of controls are dead (Herpes virus; total dose .05 μg): 1
Survivors (Herpes virus; total dose .05 μg): 0
No. animals surviving after 6-9 days (Herpes virus; total dose .5 μg): 3
Survivors (Herpes virus; total dose .5 μg): 1
concentrations with antiviral activity (polio and Vaccinia virus): 8 to 66 µg/mL
